Data as given in patent US20110070232A1, “Combination Therapy with an Antitumor Alkaloid” (Pharma Mar, S.A., priority 2008, published 2011).
In brackets after ≈: the same amount, converted by molar mass. Where two headings read alike, the source gives them in different places.

Key:
[1] = test system: AGS human gastric carcinoma cell line; test: IC50 determination, MTS assay, 72 h (Example 1); assay type: cell-based; conditions: 72 hours of drug exposure
Method in brief: (§1)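 Cells are seeded at 10,000 per well and allowed to attach for 24 h, then exposed to compound for 72 h. Viability is read by MTS/PMS, 4 h at 37 °C, with OD at 490 nm, and referenced to a time-0 plate. IC50 is averaged from two to four assays.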

[2] = test system: HGC-27 human gastric carcinoma cell line; test: IC50 determination, MTS assay, 72 h (Example 1); assay type: cell-based; conditions: 72 hours of drug exposure
Method in brief: as §1

[3] = test system: Hs746T human gastric carcinoma cell line; test: IC50 determination, MTS assay, 72 h (Example 1); assay type: cell-based; conditions: 72 hours of drug exposure
Method in brief: as §1

[4] = test system: NCI-H23 (lung cancer) cell line; test: IC50 determination, MIT (tetrazolium) assay, 72 h (Example 18); assay type: cell-based, human; conditions: NCI-H23, 72 hours of drug exposure
Protocol: NCI-H23 cells were grown in RPMI supplemented with 10% Fetal Bovine Serum (FBS), 1% penicillin/streptomycin and 2 mM L-glutamine.
(§2) Before plating, cell cultures were trypsinized and cell number estimated using an automated flow cytometer.
(§3) Cells were harvested and seeded in 96 well microtiter plates at the appropriate cell density (5,000-10,000 cells) in 150 μL of media and incubated for 24 hours to allow the cells to attach before drug addition.
(§4) After the incubation period (72 hours), 50 μL of MIT solution was added to each microtiter well and incubated for further 8 hours at 37° C. The culture medium was then removed and 50 μl, of DMSO were added to dissolve the MIT crystals. Optical densities were read at 540 nm on spectrophotometer microplate reader.
(§5) IC50 values were calculated from an average of two to four assays for each of the test agents.

[5] = test system: 5637 human bladder carcinoma cell line; test: IC50 determination, MTS assay, 72 h (Example 2); assay type: cell-based; conditions: 72 hours of drug exposure
Protocol: (§6) The following agents were evaluated in combination with PM00104: gemcitabine (Gemzar®) and cisplatin. The human bladder carcinoma cell lines selected for this assay were the following: 5637 and UM-UC-3 cell lines. 5637 cell line was grown in RPMI 1640 medium supplemented with 10% FBS, 1.5 g/L sodium bicarbonate, 4.5 g/L glucose, 10 mM HEPES, 1 mM sodium pyruvate, and 2 mM L-glutamine. UM-UC-3 cell line was grown in MEM Eagle's medium supplemented with 10% FBS and 2 mM L-glutamine.
(§7) a. […] It was used the same methodology as those disclosed in Example 1.
(§8) IC50 values were calculated from an average of three to four assays for each of the test agents.

[6] = test system: UM-UC-3 human bladder carcinoma cell line; test: IC50 determination, MTS assay, 72 h (Example 2); assay type: cell-based
Protocol: as §6, §7, §8

UM-UC-3 tumors = assay type: in vivo, mice; conditions: mg/kg/day: PM00104 0.90 IV, cisplatin 5 IP, gemcitabine 180 IP, paclitaxel 15 IP
Protocol: Female athymic nude mice (Harlan Sprague Dawley, Madison, Wis.) were utilized for all experiments. Animals were housed in ventilated rack caging with food and water ad libitum. The mice were acclimated for at least 5 days prior to tumor implantation with a tumor cell suspension.
The tumor model used in these studies was UM-UC-3 cell line, which was obtained from the ATCC (Manassas, Va.).
UM-UC-3 cells were grown in minimum essential medium (Eagle's) supplemented with 10% FBS, 1.5 g/L sodium bicarbonate, 0.1 mM non-essential amino acids, 1 mM sodium pyruvate, and 2 mM L-glutamine. Each animal was implanted SC on the right flank, using a trochar and 1 cc syringe, with 5×10^6 UM-UC-3 cells, from in vitro passage 17, in a 0.2 mL suspension of 50% Matrigel and 50% serum free medium, without antibiotics. Bacterial cultures were performed on aliquots of the cells prepared for implantation.
Treatments were initiated on DPI 15.
Tumor size measurements were recorded twice weekly from the treatment initiation until the termination of the study.
Mean, standard deviation and standard error of the mean were determined for tumor volume for all animal groups at all assessments. Student's t test was performed on tumor volumes at each measurement day, including at the end of the study, to determine whether there were any statistically significant differences between combination treatment groups and single monotherapy treatment groups.

[7] = test system: MCF-7 (breast cancer) cell line; test: IC50 determination, MIT (tetrazolium) assay, 72 h (Example 18); assay type: cell-based; conditions: Homo sapiens, MCF7; MCF-7, 72 hours of drug exposure
Protocol: as §2, §3, §4, §5

[8] = test system: MDA-MB-231 (breast cancer) cell line; test: as above; assay type: cell-based; conditions: Homo sapiens; MDA-MB-231, 72 hours of drug exposure
Protocol: as §2, §3, §4, §5

[9] = Homo sapiens, UMUC3, 72 hours of drug exposure, read-out: IC50

Compound	IC50 ([1]; Homo sapiens, read-out: IC50)	IC50 ([2]; Homo sapiens, read-out: IC50)	IC50 ([3]; Homo sapiens, read-out: IC50)	IC50 ([4]; Homo sapiens)	IC50 ([5]; Homo sapiens, read-out: IC50)	% Inhibition (UM-UC-3 tumors; day 15)	% T/C on day (UM-UC-3 tumors; day 15)	% Inhibition (UM-UC-3 tumors; day 20)	% T/C on day (UM-UC-3 tumors; day 20)	% Inhibition (UM-UC-3 tumors; day 22)	% T/C on day (UM-UC-3 tumors; day 22)	% Inhibition (UM-UC-3 tumors; day 26)	% Inhibition (UM-UC-3 tumors; day 29)	% Inhibition (UM-UC-3 tumors; day 34)	% Inhibition (UM-UC-3 tumors; day 40)	% T/C on day (UM-UC-3 tumors; day 40)	% Inhibition (UM-UC-3 tumors; day 43)	% T/C on day (UM-UC-3 tumors; day 43)	IC50 [7]	IC50 [8]	other results
COc1c(C)cc2c(c1O)[C@@H]1[C@@H]3Cc4c(OC(C)=O)c(C)c5c(c4[C@H](CNC(=O)/C=C/c4cccc(C(F)(F)F)c4)N3[C@@H](O)[C@H](C2)N1C)OCO5 [PM00104]	0.00521 µg/mL (≈ 0.00734 µM)	0.00371 µg/mL (≈ 0.00523 µM)	0.00534 µg/mL (≈ 0.00752 µM)	5 nM	0.0056 µg/mL	−0.8%	100.8%	52.8%	47.2%	52.2%	47.8%	60.2%	47.4%	50.7%	37.1%	62.9%	35.1%	64.9%	1 nM	6 nM	IC50 [6, 9]: 0.0069 µg/mL; % T/C on day (UM-UC-3 tumors; day 26): 39.8%; % T/C on day (UM-UC-3 tumors; day 29): 50.4%; % T/C on day (UM-UC-3 tumors; day 34): 49.3%
N.N.[Cl][Pt][Cl] [Cisplatin, cisplatin]						−2.2%	102.2%	23.0%	77.0%	24.2%	75.8%	38.2%	34.0%	55.3%	36.2%	63.8%	33.0%	67.0%			IC50 [1]: 25.5 µg/mL; IC50 [2]: 25.6 µg/mL; IC50 [3]: 39.2 µg/mL; IC50 [4]: 10000 nM; IC50 [5]: 2.4 µg/mL; IC50 ([6]; 72 hours of drug exposure): 0.53 µg/mL; % T/C on day (UM-UC-3 tumors; day 26): 61.8%; % T/C on day (UM-UC-3 tumors; day 29): 66.0%; % T/C on day (UM-UC-3 tumors; day 34): 44.7%
CC(=O)O[C@H]1C(=O)[C@@]2(C)[C@H]([C@H](OC(=O)c3ccccc3)[C@]3(O)C[C@H](OC(=O)[C@H](O)[C@@H](NC(=O)c4ccccc4)c4ccccc4)C(C)=C1C3(C)C)[C@]1(OC(C)=O)CO[C@@H]1C[C@@H]2O [paclitaxel]				47 nM		1.3%	98.7%	46.9%	53.1%	54.0%	46.0%	61.4%	64.6%	60.5%	47.5%	52.5%	41.0%	59.0%	70 nM	6 nM	
Nc1ccn([C@@H]2O[C@H](CO)[C@@H](O)C2(F)F)c(=O)n1 [Gemcitabine, gemcitabine]				0.28 nM	0.019 µg/mL														1.3 nM	24 nM	IC50 [6, 9]: 0.022 µg/mL
O=c1[nH]cc(F)c(=O)[nH]1 [5-FU, 5-fluorouracil]	0.532 µg/mL (≈ 4.09 µM)	0.434 µg/mL (≈ 3.34 µM)	5.46 µg/mL (≈ 42 µM)																		
